Experiments:
KRAS G12D [1] = target: KRAS G12D (Homo sapiens, UniProt P01116, C118A/G12D); test: KRAS G12D Coupled Nucleotide Exchange Assay; format: biochemical; conditions: GDP-bound KRAS G12D/C118A, 2 hours pre-incubation, SOS-mediated nucleotide exchange, AlphaScreen
Protocol: The assay plates were then read on a PerkinElmer EnVision Multilabel Reader, using AlphaScreen® technology, and data were analyzed using a 4-parameter logistic model to calculate IC50 values.

KRAS G12D [2] = target: KRAS G12D (Homo sapiens, UniProt P01116, G12D); test: KRAS G12D TR-FRET Assay; conditions: His-tagged KRAS G12D, biotinylated KRPep-2d, read-out: KRAS G12D Binding IC50
KRAS G12D (Homo sapiens, UniProt P01116, G12D), sequence (P01116 1-188 isoform P01116-2 G12D): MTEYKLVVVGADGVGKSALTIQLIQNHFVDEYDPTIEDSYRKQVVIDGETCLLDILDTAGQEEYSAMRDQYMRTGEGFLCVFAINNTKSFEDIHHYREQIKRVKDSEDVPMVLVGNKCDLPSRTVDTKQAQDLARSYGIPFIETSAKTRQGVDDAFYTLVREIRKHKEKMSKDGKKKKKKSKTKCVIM
Protocol: The plate was incubated for 30 minutes at room temperature. Biotinylated KRPep-2d substrate (Amgen) was diluted to 20 nM in Assay Buffer and 2 uL was added to all wells and incubated for 1 hour at room temperature. Detection Reagent (0.4 nM LANCE Eu-W1024 Anti-6×His (Perkin Elmer AD0401), 5 nM streptavidin-d2 (Cisbio 610SADLA)) was prepared in Assay Buffer, then 4 μL was added to the plate and incubated for 1 hour at room temperature.

p-ERK (AsPC-1 cells) = test: Phospho-ERK1/2 MSD Assay; format: cell-based; conditions: Homo sapiens, ASPC1, 2 h, read-out: 2 h p-ERK (AsPC-1 cells), IC50 (μM), AsPC-1 cells, 2 hours compound treatment

KRAS G12D (Homo sapiens, UniProt P01116, C118A/G12D), sequence (P01116 1-169 isoform P01116-2 G12D/C118A): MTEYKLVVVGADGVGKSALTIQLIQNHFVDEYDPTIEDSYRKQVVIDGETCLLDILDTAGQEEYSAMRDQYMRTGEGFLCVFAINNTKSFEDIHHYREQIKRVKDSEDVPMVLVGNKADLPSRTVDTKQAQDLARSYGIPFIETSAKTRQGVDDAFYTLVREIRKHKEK

SMILES	IC50 (KRAS G12D [1]) [nM]	IC50 (KRAS G12D [2]) [nM]	IC50 (p-ERK (AsPC-1 cells)) [µM]
CCc1c(F)ccc2cc(O)cc(-c3ncc4c(N5CCCC6(CCS(=N)(=O)C6)C5)nc(OC[C@@]56CCCN5C[C@H](F)C6)nc4c3F)c12 (stereo partly drawn) [Example 39, 7-(7-(8-Ethyl-7-fluoro-3-hydroxynaphthalen-1-yl)-8-fluoro-2-(((2R,7aS)-2-fluorotetrahydro-1H-pyrrolizin-7a(5H)-yl)methoxy)pyrido[4,3-d]pyrimidin-4-yl)-2-imino-216-thia-7-azaspiro[4.5]decane 2-oxide]	3	2	2.53
CCc1c(F)ccc2cc(O)cc(-c3ncc4c(N5CCCC6(C5)CC6(F)F)nc(OC[C@@]56CCCN5C[C@H](F)C6)nc4c3F)c12 (stereo partly drawn) [Example 44, 4-(4-(1,1-Difluoro-5-azaspiro[2.5]octan-5-yl)-8-fluoro-2-(((2R,7aS)-2-fluorotetrahydro-1H-pyrrolizin-7a(5H)-yl)methoxy)pyrido[4,3-d]pyrimidin-7-yl)-5-ethyl-6-fluoronaphthalen-2-ol]	3	3	0.252
CCc1c(F)ccc2cc(O)cc(-c3ncc4c(N5CCOCC6(CC(=O)N6)C5)nc(OC[C@@]56CCCN5C[C@H](F)C6)nc4c3F)c12 (stereo partly drawn) [Example 53, 9-(7-(8-Ethyl-7-fluoro-3-hydroxynaphthalen-1-yl)-8-fluoro-2-(((2R,7aS)-2-fluorotetrahydro-1H-pyrrolizin-7a(5H)-yl)methoxy)pyrido[4,3-d]pyrimidin-4-yl)-6-oxa-1,9-diazaspiro[3.6]decan-2-one]	2	2	0.182

Next, values leading:

IC50 (KRAS G12D [1]) [nM]	IC50 (KRAS G12D [2]) [nM]	IC50 (p-ERK (AsPC-1 cells)) [µM]	SMILES
4	3	4.32	CCc1c(F)ccc2cc(O)cc(-c3ncc4c(N5CCCC6(COC(=O)N6)C5)nc(OC[C@@]56CCCN5C[C@H](F)C6)nc4c3F)c12 (stereo partly drawn) [Example 40, 7-(7-(8-Ethyl-7-fluoro-3-hydroxynaphthalen-1-yl)-8-fluoro-2-(((2R,7aS)-2-fluorotetrahydro-1H-pyrrolizin-7a(5H)-yl)methoxy)pyrido[4,3-d]pyrimidin-4-yl)-3-oxa-1,7-diazaspiro[4.5]decan-2-one]
10	19	> 10	CCc1c(F)ccc2cc(O)cc(-c3ncc4c(N5CCC6(CC5)CNC(=O)O6)nc(OC[C@@]56CCCN5C[C@H](F)C6)nc4c3F)c12 [Example 41, 8-(7-(8-Ethyl-7-fluoro-3-hydroxynaphthalen-1-yl)-8-fluoro-2-(((2R,7aS)-2-fluorotetrahydro-1H-pyrrolizin-7a(5H)-yl)methoxy)pyrido[4,3-d]pyrimidin-4-yl)-1-oxa-3,8-diazaspiro[4.5]decan-2-one]
5	7	3.18	CCc1c(F)ccc2cc(O)cc(-c3ncc4c(N5CCC6(CC5)COC(=O)N6)nc(OC[C@@]56CCCN5C[C@H](F)C6)nc4c3F)c12 [Example 42, 8-(7-(8-Ethyl-7-fluoro-3-hydroxynaphthalen-1-yl)-8-fluoro-2-(((2R,7aS)-2-fluorotetrahydro-1H-pyrrolizin-7a(5H)-yl)methoxy)pyrido[4,3-d]pyrimidin-4-yl)-3-oxa-1,8-diazaspiro[4.5]decan-2-one]
